Columns and labels:
[1] = target: T1, cytochrome oxidase (CcOX) (Rattus norvegicus, UniProt P05503); experiment: Myocardial cytochrome oxidase steady-state kinetic activity in isolated cardiac mitochondria after CLP or sham operation; format: in vivo
T1 construct: from tissue; host or cells: mitochondria isolated from cardiac ventricles of Sprague-Dawley rats
Description: (§1) The care of the animals in this study was in accordance with NIH and Institutional Animal Care and Use Committee guidelines. Under isoflurane general anesthesia (up to 2%), 250 g male Sprague-Dawley rats (Charles River, Boston, Mass., USA) underwent cecal ligation and double puncture (CLP) with an 18-gauge needle or sham operation as previously described. All animals were administered 50 ml/kg saline subcutaneously immediately post procedure and every 24 hours. Once awake, animals were given access to food and water ad libitum.
(§2) Twenty four and 48 hours post-procedure, rats received either an intraperitoneal (i.p) injection of caffeine (7.5 mg/kg, Sigma-Aldrich, St. Louis, Mo.) or equal volume saline (1 mL). […] Four cohorts were evaluated: SHAM saline, SHAM caffeine, CLP saline, CLP caffeine. […]
(§3) Cardiac ventricles were harvested and homogenized in ice-cold H medium (70 mM sucrose, 220 mM mannitol, 2.5 mM Hepes, pH 7.4 and 2 mM EDTA). […] Pellets were again resuspended in H medium and mitochondrial protein concentration determined using the method of Lowry.
CcOX kinetics were assayed by the method of Smith in which the rate of oxidation of ferrocytochrome c was measured by following the decrease in absorbance at 550 nm. […] Specific activity was calculated from mean values of three to four measurements using 21.1 mM−cm^−1 as the extinction coefficient of ferrocytochrome c at 550 nm. […]

[2] = tested on: cecal ligation and puncture (CLP) sepsis model; experiment: Survival to 96 hours following CLP or sham operation; format: in vivo, rat
Description: as §1
The survival was followed in a separate cohort of animals in this two treatment parallel-design study to 96 hours. Each animal was injected with either caffeine (7.5 mg/kg i.p.) or equal volume of saline (1 mL i.p.) every 24 hours beginning 24 hours following CLP or sham operation. Twenty animals per group were evaluated based on the probability being 80 percent that the study will detect a treatment difference at a two-sided 5.0 percent significance level, if the true hazard ratio is 3.
Data are presented as mean +/− standard deviation. Statistical significance was assessed using ANOVA and post hoc Tukey's test with p<0.05. Statistical significance in the survival study was assessed using Kaplan-Meier survival curves and Mantel-Cox log-rank test.

[3] = tested on: cytochrome oxidase subunit I (CcOX-I); experiment: Immunoblot of steady-state levels of cardiac cytochrome oxidase subunit I; format: in vivo, rat; details: between all groups (SHAM/CLP, saline/caffeine), normalized to porin
Description: as §1, §2, §3
10 μg samples of mitochondrial protein were subjected to SDS-acrylamide gel electrophoresis and immunoblotting. […] The signal was detected with enhanced chemiluminescence (ECL; Amersham Pharmacia Biotech, Piscataway, N.J., USA), and density was measured using scanning densitometry. Five animals per group per experiment were evaluated.

[4] = tested on: isolated rat heart; experiment: Isolated rat heart preparation (left ventricular function, coronary perfusion, oxygen extraction and consumption) after CLP or sham operation; format: in vivo; details: for heart rate: mean +/- SD
Description: as §1
Twenty four and 48 hours post-procedure, rats received either an intraperitoneal (i.p) injection of caffeine (7.5 mg/kg, Sigma-Aldrich, St. Louis, Mo.) or equal volume saline (1 mL). Rats were sacrificed one hour after the 48 hour injection following euthanasia with 150 mg/kg of intraperitoneal pentobarbital. Four cohorts were evaluated: SHAM saline, SHAM caffeine, CLP saline, CLP caffeine. N=5 per group. The 24-hour time point was chosen for initial intervention based on the onset of the hypodynamic phase when cardiac function begins to deteriorate and the presence of reversible CcOX inhibition. Studies were performed at the 48-hour time point because this time point represents the late phase of sepsis when cardiac function is markedly depressed and mortality is 75%.
Rats were anesthetized with intraperitoneal pentobarbital (70 mg/kg) and heparinized (1000 U IP). The heart was excised rapidly and the aorta was cannulated. Retrograde perfusion was initiated at constant flow (12 mL/g-min) with a modified Krebs-Henseleit buffer containing (mmol/L) NaCl 120, KCl 4.7, MgSO4 1.2, KH2PO4 1.2, CaCl2 1.25, NaHCO3 25, and glucose. The non-recirculating buffer was maintained at pH 7.4 equilibrated with 95% O2-5% CO2 at 37° C. Isovolumetric left ventricle pressure (LVP) was measured with a transducer connected to a saline-filled latex balloon inserted into the left ventricle through the left atrium. The balloon was inflated to maintain an end-diastolic pressure of 10 mmHg Hearts were immersed in a water-jacketed chamber maintained at 37° C. and allowed to stabilize for 30 minutes.
Heart rate, LVP, the maximum rate of positive and negative change in LVP (+/−dP/dt), and aortic pressure were collected with an analog-to-digital converter system (Power Laboratory 4SP, ADlnstruments, Castle Hill, Australia). […] Measurements were obtained at coronary flow rates (CF) of 12, 10, 8, 6, and 4 mL/g-min Coronary inflow oxygen tension (PaO2) and coronary sinus oxygen tension (PvO2) were measured (GEM Premier 3000, Instrumentation Laboratory, Belgium). Percent O2 extraction was calculated as 100×(PaO2-PvO2/PaO2). Myocardial O2 consumption (MO2) was calculated as CF/g×(PaO2-PvO2)×O2 solubility at 760 mmHg O2 solubility is 24 |il/ml H2O at 37° C. Coronary perfusion pressure was calculated as the difference between mean aortic pressure and LV end-diastolic pressure. Coronary resistance was calculated by dividing perfusion pressure by coronary flow.

[5] = CLP caffeine, 12 mL/g-min coronary flow, compared to saline injected sham values (so in the source)
[6] = CLP caffeine, toward saline injected sham values, most flow rates
[7] = sham caffeine vs both CLP groups, all coronary flow rates
[8] = sham caffeine vs saline injected sham, highest flow rates

With Cn1c(=O)c2c(ncn2C)n(C)c1=O [caffeine] the “myocardial CcOX kinetic activity normalized to citrate synthase activity” value ([1]; CLP rats, 48 hours, caffeine 7.5 mg/kg i.p. at 24 and 48 hours, vs sham) was “restored CcOX kinetic activity in CLP rats to sham values”, the “myocardial CcOX kinetic activity normalized to citrate synthase activity” value ([1]; sham animals, caffeine injected vs saline injected) was “no significant difference” and the “animals survived to 48 hours” value ([2]; CLP, caffeine 7.5 mg/kg i.p. daily from 24 hours, 48 hours) was “Eighty”. The “animals survived to 72 hours” value ([2]; CLP, caffeine 7.5 mg/kg i.p. daily from 24 hours, 72 hours) was 55%, the “animals survived to 96 hours” value ([2]; CLP, caffeine 7.5 mg/kg i.p. daily from 24 hours, 96 hours) was 40% and the mortality ([2]; sham operation, caffeine 7.5 mg/kg i.p. daily, to 96 hours) was “no mortality”. The “steady-state myocardial CcOX I levels” value [3] was “no significant difference”, the coronary resistance ([4]; CLP caffeine vs CLP saline) was “significantly increased” and the coronary perfusion pressure ([4]; CLP caffeine vs CLP saline, 12 mL/g-min coronary flow) was “significantly increased”. For the same compound, the “left ventricular pressure (LVP)” value ([4]; CLP caffeine vs CLP saline, all flow rates greater than 4 mL/g-min) was “significantly improved”, the “left ventricular pressure (LVP)” value ([4]; CLP caffeine vs saline injected sham, flow rates except 12 mL/g-min) was “approached saline injected sham values” and the “left ventricular pressure (LVP)” value ([4]; CLP caffeine vs sham cohorts, 12 mL/g-min coronary flow) was “significantly lower than both sham cohorts”. For the same compound, the coronary perfusion pressure ([4]; CLP caffeine vs sham controls, almost all coronary flow rates) was “significant reductions”, the myocardial oxygen consumption [4, 5] was “significantly increased” and the myocardial oxygen extraction [4, 5] was “significantly increased”. For the same compound, the heart rate ([4]; CLP caffeine) was 262+/−11 bpm, the “+dP/dt” value [4, 6] was “significantly improved” and the “−dP/dt” value [4, 6] was “significantly improved”. For the same compound, the “left ventricular pressure (LVP)” value ([4]; sham caffeine vs all other groups, highest coronary flow rates) was “significantly increased”, the myocardial oxygen consumption ([4]; sham caffeine vs both CLP cohorts, 12 mL/g-min coronary flow) was “significantly increased” and the “+dP/dt” value [4, 7] was “significantly increased”. The “−dP/dt” value [4, 7] was “significantly increased”, the “+dP/dt” value [4, 8] was “significantly increased” and the “−dP/dt” value [4, 8] was “significantly increased”. The coronary resistance ([4]; sham caffeine vs sham saline) was “significantly decreased”, the coronary perfusion pressure ([4]; sham caffeine vs sham saline, highest flow rate) was “significantly reduced” and the heart rate ([4]; sham caffeine) was 276+/−11 bpm.

From US9155741B2, “Methods of using a methylxanthine compound” (The Trustees of the University of Pennsylvania, priority 2008, dated 2015)
